In patent US20110059124A1, “THE QUALITY CONTROL METHOD AND APPLICATION OF A KIND OF GANODERMA LUCIDUM SPORE OIL FAT EMULSION” (Guangzhou Hanfang Natural Medicine Research & Development …, priority 2008, published 2011):
Marks after values point to notes of the source that are not given here. Ends that are not written are not given here.

Assays:
Assay type in all cases: in vivo, ICR mice
H22 tumor bearing mice [1] = test: Toxicity reduction for ^60Co radiation in H22 tumor bearing mice; conditions: ^60Co 500 rad, 0.42 mg/kg Sc once every other day
Procedure: Toxicity Reducing Effect of Ganoderma lucidium Spore Oil Fat Emulsion i.v. Dosage for Chemotherapy with ^60Co in H22 Tumor Bearing Mice
(§1) Experiment Method: Take 60 ICR mice, innoculate with H22 solid tumor pursuant to the research method for transplantable tumors, 24 hours after innoculation, apart from the 10 animals in blank control, the other 50 mice receive ^60Co radiation, with a dosage of 500 rad; after radiation with ^60Co, randomize the animals into 5 groups pursuant to body weight, with 10 animals in each group, half of which are females and half of which are males. […] Apart from that Thymosin a1 are dosed once every other day, the other groups are administered once daily, with a total dose of 7 times, and the mice are sacrificed 24 hours after termination of dosage, weigh and collect blood from the orbit veins before sacrificing, microscopically examine the total number of peripheral blood leukocytes, at the same time remove spleen, thymus gland and one complete femur, then determine the number of nucleated cells in bone marrow, and weigh the thymus gland and spleen, and calculate the coefficients of thymus glands and spleen organs, and carry out statistical treatment (t Test).

normal mice [2] = test: Toxicity reduction for chemotherapy (Cy) in normal mice; conditions: 0.42 mg/kg Sc once every other day + Cy 100 mg/kg ip
Procedure: Toxicity reducing Effect of Ganoderma lucidium Spore Oil Fat Emulsion i.v. Dosage for Chemotherapy (Cy) in Normal Mice
Experiment Method: Take 60 ICR mice, and randomize into 6 groups pursuant to body weight, with 10 animals in each group, half of which are females and half of which are males. […] Apart from that Thymosin a1 is administered once every other day, other groups are administered once daily, with a total dosage of 7 times. On day 4 and day 5 of the administration, apart from blank control, the other groups begin to be treated with ip.Cy (100 mg/kg), for two successive days, and the mice are sacrificed 24 hours after termination of dosage, weigh and collect blood from the orbit veins before sacrificing, microscopically examine the total number of peripheral blood leukocytes, at the same time dissect one complete femur, then determine the number of nucleated cells in the bone marrow, and remove the thymus gland and spleen for weighing, and calculate the coefficients of thymus glands and spleen organs, and carry out statistical treatment (t Test).

normal mice [3] = test: Toxicity reduction for ^60Co radiation in normal mice; conditions: ^60Co 500 rad, 0.42 mg/kg Sc once every other day
Procedure: Toxicity Reducing Effect of Ganoderma lucidium Spore Oil Fat Emulsion i.v . Dosage for Chemotherapy ^60Co in Normal Mice
as §1, with “mice,” for “mice, innoculate with H22 solid tumor pursuant to the research method for transplantable tumors, 24 hours after innoculation,”, “are radiated with ^60Co,” for “receive ^60Co radiation,”, “All groups of animals are dosed 24 hours after innoculation, apart” for “Apart”, “leukocytes;” for “leukocytes,”

H22 tumor bearing mice [4] = test: Phagocytic activity of reticuloendothelial system (RES) in H22 tumor bearing mice; conditions: 0.42 mg/kg Sc once every other day
Procedure: Experiment Treatment Effect of Ganoderma lucidium Spore Oil Fat Emulsion i.v. Dosage Influencing the Phagocytic Activity of Reticuloendothelial System (RES) in H22 Tumor Bearing Mice.
Experiment Method: Take 50 ICR mice, inoculate with H22 solid tumor, randomize into 5 groups pursuant to body weight, with 10 animals in each group, half of which are females and half of which are males. […] Apart from that Thymosin a1 is administered once every other day, other groups are administered once daily, with a total dosage of 11 times. […] All the data obtained are statistically treated (t Test).

H22 tumor bearing mice [5] = test: Toxicity reduction for chemotherapy with cyclophosphamide (Cy) in H22 tumor bearing mice; conditions: 0.42 mg/kg Sc once every other day + Cy 100 mg/kg ip
Procedure: Toxicity Reduction Effect of Ganoderma lucidium Spore Oil Fat Emulsion i.v. Dosage for Chemotherapy with Cyclophosphamide (Cy) in H22 Tumor Bearing Mice
Experiment Method: Take 60 ICR mice, inoculate with H22 solid tumor, weigh 24 hours after inoculation, then randomize into 6 groups, with 10 animals in each group, half of which are females and half of which are males. […] Apart from that Thymosin a1 are dosed once every other day, the other groups are administered once daily, with a total dose of 7 times, on day 4 and day 5 of administration, apart from blank control, the other groups begin to be treated with ip.Cy (100 mg/kg), for two successive day, and the mice are sacrificed 24 hours after termination of dosage, weigh and collect blood from the orbit veins before sacrificing, microscopic examine the total number of peripheral blood leukocytes, at the same time dissect one complete femur, then determine the number of nucleated cells in the bone marrow, and remove the thymus gland and spleen for weighing, and calculate the coefficients of thymus glands and spleen organs, and carry out statistical treatment (t Test).

H22 tumor bearing mice [6] = test: Delayed hypersensitivity (DNFB) in H22 tumor bearing mice; conditions: 0.42 mg/kg Sc once every other day
Excerpt: Experiment Treatment Effect of Ganoderma lucidium Spore Oil Fat Emulsion i.v. Dosage Influencing the Immunity Function of Specific Cells in H22 Tumor Bearing Mice
Take 50 ICR mice, inoculate with H22 solid tumor pursuant to the research method of transplantable tumor (take the tumor mass under sterile operation, then weigh, grinding with Glass tissue homogenizer, after homogeneity, put into sterile containers, then dilute with normal saline into cell suspension of 1:3, for each mouse, inoculate intracutaneously under the right armpit for 0.2 ml). On the second day, they are randomized into 5 groups, with 10 mice in each group, with half being males and half females, which are divided into: Intravenous Control Group ([…], Blank Group), High, Medium, Low Doasge Groups injected with Ganoderma lucidium spore oil fat emulsion (1, 0.5, 0.25 g/kg) iv administered, Thymosin a1 injection group (0.42 mg/kg) Sc administered; apart from that Thymosin a1 is administered once every other day, other groups are administered once daily, with 7 administration. On day 1 after dosage, hair is removed from the abdomen of each mouse, with an area of 3×3 cm^2. On day 2 after dosage, smear 1% of DNFB evenly on the abdomen of mice (DNFB is a kind of haptene, which after combination with cutaneous proteins could form holoantigen, that stimulate the T Lymphocytes to multiply into sensitized lymphocytes).

Thymosin a1: Positive control drug Thymosin a1 injection, 0.42 mg/kg Sc (SDAAVDTSSEITTKDLKEKKEVVEEAEN; ends and bridges not checked; UniProt P06454 2-29, looked up)
Body Weight After Dosage (H22 tumor bearing mice [1]): 24.20 ± 2.25 g
Body Weight Before Dosage (H22 tumor bearing mice [1]): 19.60 ± 1.51 g
Spleen Coefficient (H22 tumor bearing mice [1]): 0.33 ± 0.04 g/100 g
The number of nucleated cells in bone marrow (H22 tumor bearing mice [1]): 82.71 ± 13.58* 10^5/piece
Thymus Gland Coefficient (H22 tumor bearing mice [1]): 0.17 ± 0.07 g/100 g
WBC (H22 tumor bearing mice [1]): 1.98 ± 0.31* 10^9/L
Body Weight After Dosage (normal mice [2]): 22.90 ± 2.18 g
Body Weight Before Dosage (normal mice [2]): 19.60 ± 1.26 g
Spleen Coefficient (normal mice [2]): 0.36 ± 0.10 g/100 g
The number of nucleated cells in bone marrow (normal mice [2]): 75.43 ± 13.32* 10^5/piece
Thymus Gland Coefficient (normal mice [2]): 0.18 ± 0.03 g/100 g
WBC (normal mice [2]): 2.04 ± 0.41* 10^9/L
Body Weight After Dosage (normal mice [3]): 23.30 ± 2.11 g
Body Weight Before Dosage (normal mice [3]): 19.90 ± 1.66 g
Spleen Coefficient (normal mice [3]): 0.31 ± 0.14 g/100 g
The number of nucleated cells in bone marrow (normal mice [3]): 67.83 ± 13.09* 10^5/piece
Thymus Gland Coefficient (normal mice [3]): 0.14 ± 0.05 g/100 g
WBC (normal mice [3]): 1.21 ± 0.38* 10^9/L
Clearance Index K (H22 tumor bearing mice [4]): 0.09 ± 0.02
Liver Coefficient (H22 tumor bearing mice [4]): 6.91 ± 1.08 g/100 g
Phagocytic Coefficient α (H22 tumor bearing mice [4]): 5.71 ± 0.76
Spleen Coefficient (H22 tumor bearing mice [4]): 1.16 ± 0.44 g/100 g
Thymus Gland Coefficient (H22 tumor bearing mice [4]): 0.33 ± 0.11 g/100 g
Body Weight After Dosage (H22 tumor bearing mice [5]): 23.60 ± 2.27 g
Body Weight Before Dosage (H22 tumor bearing mice [5]): 19.70 ± 1.57 g
Spleen Coefficient (H22 tumor bearing mice [5]): 0.64 ± 0.21 g/100 g
The number of nucleated cells in bone marrow (H22 tumor bearing mice [5]): 73.31 ± 15.99* 10^5/piece
Thymus Gland Coefficient (H22 tumor bearing mice [5]): 0.12 ± 0.04 g/100 g
WBC (H22 tumor bearing mice [5]): 2.03 ± 0.44* 10^9/L
Swelling Degree (H22 tumor bearing mice [6]; 24 hours after DNFB attack): 13.50 ± 3.44 mg
Swelling Rate (H22 tumor bearing mice [6]; 24 hours after DNFB attack): 89.12 ± 19.76 %
Body Weight After Dosage (H22 tumor bearing mice [6]; in g): 25.10 ± 2.18
Body Weight Before Dosage (H22 tumor bearing mice [6]; in g): 19.30 ± 1.34
